Assay results reported in patent publication US6747029B2, “Dopamine D4 receptor antagonists as treatment for attention deficit-hyperactivity disorder” (priority 2001, dated 2004).

Experiments:
6-OHDA-lesioned rats = assay: Locomotor activity of juvenile rats with neonatal 6-OHDA lesions (ADHD model); type: in vivo, Sprague-Dawley rat; conditions: for effect on lesion-induced hyperactivity (dose dependence): i.p., low and high dosage; for effect on lesion-induced hyperactivity (dose dependence) / motor activity in lesioned rats: daytime; for hyperactivity in lesioned rats with psychostimulants: daytime 10:00-16:00 h, dose not given
Text: For example, behavioral studies of juvenile rats with neonatal 6-hydroxydopamine (6-OHDA) lesions, as is described below, can be used to screen drugs in order to identify candidate drugs for use in the method of the invention. […] As a result, juvenile rats with neonatal 6-OHDA lesions are accepted as a laboratory model for ADHD.
On postnatal day (PD) 5, male Sprague-Dawley rat pups randomly received intracisternal injections of vehicle (“sham-lesioned”) (0.9% NaCl containing 0.1% ascorbic acid) or 6-OHDA hydrobromide (“lesioned”) (100 μg free base) into the brain under hypothermal anesthesia at 45 min after pretreatment with desipramine hydrochloride (20 mg/kg free base) injected subcutaneously (s.c.).
Behavioral effects of neonatal lesions were examined by monitoring locomotor activity at PD 21-30 in a novel environment to provoke exploratory activity. Rats were maintained under a 12-h artificial daylight/dark schedule (on, 07:00-19:00 h), with free access to tap-water and standard rat chow. Motor activity was automatically monitored for 90 min between PD 21 and 30, with a computer-controlled photobeam activity monitoring system (San Diego Instruments, San Diego, Calif.). […] […] Sessions were separated by 48 hours. […] Breaking of consecutive photobeams was scored as locomotion.

sham-lesioned rats = assay: Locomotor activity of sham-lesioned control rats; type: in vivo, Sprague-Dawley rat; conditions: daytime 10:00-16:00 h
Description: (§1) On postnatal day (PD) 5, male Sprague-Dawley rat pups randomly received intracisternal injections of vehicle (“sham-lesioned”) (0.9% NaCl containing 0.1% ascorbic acid) or 6-OHDA hydrobromide (“lesioned”) (100 μg free base) into the brain under hypothermal anesthesia at 45 min after pretreatment with desipramine hydrochloride (20 mg/kg free base) injected subcutaneously (s.c.). Lesions of DA in forebrain tissue sections were verified by quantifying DA transporter binding with [^3H]GBR-12935 (1-[2-(diphenylmethoxy)ethyl]-4-(3-phenylpropyl)piperazine) by computed autoradiography at the completion of experiments as an indication of loss of DA nerve terminals in forebrain.
Behavioral effects of neonatal lesions were examined by monitoring locomotor activity at PD 21-30 in a novel environment to provoke exploratory activity. Rats were maintained under a 12-h artificial daylight/dark schedule (on, 07:00-19:00 h), with free access to tap-water and standard rat chow. Motor activity was automatically monitored for 90 min between PD 21 and 30, with a computer-controlled photobeam activity monitoring system (San Diego Instruments, San Diego, Calif.). […] Breaking of consecutive photobeams was scored as locomotion.

D4 receptors [1] = target: T1, D4 receptors (Homo sapiens, UniProt P21917); conditions: cited from earlier work
T1 sequence (P21917 1-419): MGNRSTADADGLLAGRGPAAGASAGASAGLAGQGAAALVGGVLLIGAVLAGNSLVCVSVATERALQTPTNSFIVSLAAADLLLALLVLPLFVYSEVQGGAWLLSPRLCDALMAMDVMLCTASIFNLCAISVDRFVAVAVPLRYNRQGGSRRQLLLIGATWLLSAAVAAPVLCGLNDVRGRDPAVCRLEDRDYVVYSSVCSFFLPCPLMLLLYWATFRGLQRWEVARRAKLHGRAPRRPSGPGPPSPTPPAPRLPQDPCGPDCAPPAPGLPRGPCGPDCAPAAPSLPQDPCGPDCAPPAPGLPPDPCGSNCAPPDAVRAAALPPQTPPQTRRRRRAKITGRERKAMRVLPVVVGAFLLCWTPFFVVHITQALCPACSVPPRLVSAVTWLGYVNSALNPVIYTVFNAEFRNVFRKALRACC

D2-like receptors = assay: Autoradiography of D2-like receptor binding in forebrain after neonatal lesion; type: in vivo, rat
Description: as §1
(§2) Rats were sacrificed 2 days after the last behavioral testing for autoradiographic analysis of DA receptor density. Frozen coronal brain sections (10 μm) were prepared in a cryostat at −17° C., thaw-mounted on gelatin-coated microscopic slides and stored at −80° C. until quantitative autoradiographic assays. D2-like receptor binding was assayed with 1 nM [^3H]nemonapride in the presence of 0.5 μM 1,3-ditolylguanidine and 0.1 μM pindolol to block 5-HT1A sites in the brain tissue. Nonspecific binding was determined with 10 μM […]. […] Nonspecific binding was determined with 1 μM cis-flupenthixol.

D4 receptors [2] = assay: Autoradiography of D4 receptor binding in forebrain after neonatal lesion; type: in vivo, rat
Description: as §1, §2

[3] = tested on: non-dopaminergic receptors; conditions: except 5-HT1A and 5-HT2A; cited from earlier work

Question: Which “effect on lesion-induced hyperactivity (dose dependence)” value (6-OHDA-lesioned rats) does the source give for Fc1ccc2[nH]c(CN3CCN(c4ccccn4)CC3)cc2c1 [CP-226,269] here?
Answer: dose-dependent exacerbation

Question: Which “hyperactivity in lesioned rats with psychostimulants” value (6-OHDA-lesioned rats) does the source give for COC(=O)C(c1ccccc1)C1CCCCN1 (racemic) [(±)-methylphenidate] here?
Answer: reduced

Question: And the “motor activity in sham-lesioned controls” value (sham-lesioned rats)?
Answer: greatly increased motor activity

Question: With CC[C@@H](CO)NC(=O)[C@@H]1C=C2c3cccc4c3c(cn4C)C[C@H]2N(C)C1 [methysergide] as the compound, how does the “effect of methysergide alone on lesion-induced hyperactivity” value (6-OHDA-lesioned rats; 2 mg/kg i.p., 30 min prior to testing) read?
Answer: failed to affect

Question: And the “effect of methysergide pretreatment on motor responses to subsequent CP-293,019” value (6-OHDA-lesioned rats; methysergide 2 mg/kg i.p. 30 min before CP-293,019 30 mg/kg)?
Answer: did not affect

Question: With CC(N)Cc1ccccc1 (single isomer, unassigned; (+)) [(+)-amphetamine] as the compound, how does the “hyperactivity in lesioned rats with psychostimulants” value (6-OHDA-lesioned rats) read?
Answer: reduced

Question: And the “motor activity in sham-lesioned controls” value (sham-lesioned rats)?
Answer: greatly increased motor activity

Question: For Clc1ccc(N2CCN(Cc3c[nH]c4ncccc34)CC2)cc1 [L-745,870, 3-{[4-(4-chlorophenyl)piperazin-1-yl]methyl}-1H-pyrrolo[2,3-b]pyridine], which “motor activity in lesioned rats” value (6-OHDA-lesioned rats; 15 mg/kg i.p.) is on record?
Answer: reversed to a level similar to that found in control rats

Question: And the “selectivity and kind of action at D4 receptors” value (D4 receptors [1])?
Answer: highly selective fill antagonist

Question: Which results are given for NCCc1cc(O)c(O)cc1O [6-OHDA, 6-hydroxydopamine]?
Answer: increase of D2-like receptors versus sham (D2-like receptors; lateral CPu): 16.6%; increase of D2-like receptors versus sham (D2-like receptors; medial CPu): 18.3%; increase of D4 receptor binding versus sham (D4 receptors [2]; lateral CPu): 40.3%; increase of D4 receptor binding versus sham (D4 receptors [2]; medial CPu): 35.2%

Question: Which “motor activity in lesioned rats” value (6-OHDA-lesioned rats; 30 mg/kg i.p., 90 min session) does the source give for Fc1ccc(OCC2CCC3CN(c4ncc(F)cn4)CCN3C2)cc1 (stereo not drawn) [CP-293,019, 7R,S-(4-fluoro-phenoxymethyl)-2-(5-fluoro-pyrimidin-2-yl)-octahydropyrido[1,2-α]pyrazine] here?
Answer: indistinguishable from sham-lesioned controls

Question: What about the “nocturnal hyperactivity in lesioned rats” value (6-OHDA-lesioned rats; 30 mg/kg, nocturnal 22:00-04:00 h) of the same compound?
Answer: completely reversed

Question: And the inhibition at 10 mg/kg (6-OHDA-lesioned rats; Rattus norvegicus, ip, read-out: inhibition of motor activity in lesioned rats)?
Answer: ~40%

Question: What about the “effect on lesion-induced hyperactivity (dose dependence)” value (6-OHDA-lesioned rats) of the same compound?
Answer: dose-dependent mitigation

Question: What about the “affinity for non-dopaminergic receptors” value [3] of the same compound?
Answer: negligible affinity

Question: What about the “potency at D4 receptors relative to D2 or other DA receptors” value (D4 receptors [1]) of the same compound?
Answer: more than 1000 times

Question: And the “selectivity and kind of action at D4 receptors” value (D4 receptors [1])?
Answer: highly D4 receptor-selective, full antagonist
